What is called EC50 is the concentration giving half of the maximal effect. The term AC50 denotes the midpoint of the concentration-response curve, whichever way the signal moves.

Active and inactive are the calls of the source.

This passage reports IC50, EC50 and AC50 results from ChEMBL document CHEMBL1201862, “PubChem BioAssay data set” (2004).

Experiment [1] has as its target T1, Apoptotic protease-activating factor 1 (Homo sapiens, UniProt O14727).
T1 sequence (O14727 whole entry): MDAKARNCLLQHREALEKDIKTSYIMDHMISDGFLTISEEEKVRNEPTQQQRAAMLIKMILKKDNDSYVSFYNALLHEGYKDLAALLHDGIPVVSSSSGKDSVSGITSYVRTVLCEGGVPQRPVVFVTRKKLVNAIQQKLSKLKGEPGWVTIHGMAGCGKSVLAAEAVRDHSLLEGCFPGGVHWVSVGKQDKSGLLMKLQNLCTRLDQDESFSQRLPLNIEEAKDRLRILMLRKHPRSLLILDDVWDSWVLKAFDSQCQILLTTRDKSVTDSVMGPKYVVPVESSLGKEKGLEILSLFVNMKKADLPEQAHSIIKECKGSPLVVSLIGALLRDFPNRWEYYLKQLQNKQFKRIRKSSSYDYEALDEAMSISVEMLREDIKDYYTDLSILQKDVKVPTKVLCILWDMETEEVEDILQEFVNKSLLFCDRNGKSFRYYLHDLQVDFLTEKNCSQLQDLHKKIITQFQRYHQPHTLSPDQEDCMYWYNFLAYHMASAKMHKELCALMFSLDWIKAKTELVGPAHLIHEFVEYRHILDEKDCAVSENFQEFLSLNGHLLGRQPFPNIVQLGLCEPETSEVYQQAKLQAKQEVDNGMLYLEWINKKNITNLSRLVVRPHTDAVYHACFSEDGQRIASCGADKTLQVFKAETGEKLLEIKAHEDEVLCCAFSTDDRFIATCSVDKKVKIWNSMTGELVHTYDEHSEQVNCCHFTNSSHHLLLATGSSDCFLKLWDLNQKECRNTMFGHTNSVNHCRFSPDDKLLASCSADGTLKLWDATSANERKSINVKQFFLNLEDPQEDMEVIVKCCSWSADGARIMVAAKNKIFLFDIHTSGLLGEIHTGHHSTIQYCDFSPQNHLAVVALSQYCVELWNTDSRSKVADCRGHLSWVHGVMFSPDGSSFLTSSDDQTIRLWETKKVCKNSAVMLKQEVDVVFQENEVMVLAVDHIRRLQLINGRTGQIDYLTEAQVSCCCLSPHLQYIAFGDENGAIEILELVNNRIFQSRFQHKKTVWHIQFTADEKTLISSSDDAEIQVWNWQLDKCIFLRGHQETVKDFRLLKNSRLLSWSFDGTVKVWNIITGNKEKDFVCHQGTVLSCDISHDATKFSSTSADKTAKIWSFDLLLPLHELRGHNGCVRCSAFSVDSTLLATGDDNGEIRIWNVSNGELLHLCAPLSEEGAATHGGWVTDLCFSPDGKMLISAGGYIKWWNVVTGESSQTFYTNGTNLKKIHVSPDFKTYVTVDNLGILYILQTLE
It counts as functional.

The next experiment has as its target T2, Protein RecA (Mycobacterium tuberculosis, UniProt P9WHJ3).
T2 sequence (P9WHJ3 whole entry): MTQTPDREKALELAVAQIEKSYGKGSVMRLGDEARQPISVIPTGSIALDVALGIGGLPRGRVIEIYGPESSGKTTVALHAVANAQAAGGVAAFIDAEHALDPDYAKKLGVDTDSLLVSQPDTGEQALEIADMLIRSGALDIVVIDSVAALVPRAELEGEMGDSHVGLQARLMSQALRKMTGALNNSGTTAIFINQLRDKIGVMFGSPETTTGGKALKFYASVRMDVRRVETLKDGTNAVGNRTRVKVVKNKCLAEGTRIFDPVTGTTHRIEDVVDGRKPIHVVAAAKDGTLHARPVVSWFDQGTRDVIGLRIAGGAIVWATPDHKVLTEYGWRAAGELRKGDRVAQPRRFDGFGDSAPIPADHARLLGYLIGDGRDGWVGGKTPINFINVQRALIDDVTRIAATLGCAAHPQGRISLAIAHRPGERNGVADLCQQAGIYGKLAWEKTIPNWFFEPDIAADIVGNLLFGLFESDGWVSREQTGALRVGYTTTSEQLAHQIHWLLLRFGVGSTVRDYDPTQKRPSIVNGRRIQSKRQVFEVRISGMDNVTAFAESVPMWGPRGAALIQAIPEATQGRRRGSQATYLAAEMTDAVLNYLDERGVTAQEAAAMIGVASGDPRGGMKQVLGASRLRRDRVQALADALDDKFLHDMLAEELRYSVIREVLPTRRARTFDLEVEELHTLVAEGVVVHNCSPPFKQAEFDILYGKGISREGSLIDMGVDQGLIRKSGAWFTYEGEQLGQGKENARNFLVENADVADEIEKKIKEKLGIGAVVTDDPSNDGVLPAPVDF
Briefly: Fluorescence Cell-Free Homogeneous Dose Retest to Identify Inhibitors of RecA-Intein Splicing Activity. [Related pubchem assays (depositor defined):AID2097, AID2223, AID489010, AID492950]. It counts as functional.

The target of experiment [2] is T3, Tyrosyl-DNA phosphodiesterase 2 (Homo sapiens, UniProt O95551).
T3 sequence (O95551 whole entry): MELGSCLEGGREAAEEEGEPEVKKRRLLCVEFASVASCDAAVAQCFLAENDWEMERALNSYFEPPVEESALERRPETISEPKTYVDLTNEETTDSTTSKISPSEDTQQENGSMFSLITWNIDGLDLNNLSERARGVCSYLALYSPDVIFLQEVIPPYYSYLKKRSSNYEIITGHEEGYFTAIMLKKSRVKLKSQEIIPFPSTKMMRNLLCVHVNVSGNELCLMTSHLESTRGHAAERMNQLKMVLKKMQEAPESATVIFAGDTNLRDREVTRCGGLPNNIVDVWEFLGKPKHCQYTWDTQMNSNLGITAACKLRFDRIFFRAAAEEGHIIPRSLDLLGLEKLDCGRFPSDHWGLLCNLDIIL
Briefly: human TDP2 enzyme inhibitors, dose response, biochemical, epi absorbance, IC50 (AID 743297).

Experiment [3] addresses T4, Replicative DNA helicase DnaB (Mycobacterium tuberculosis, UniProt P9WMR3).
T4 sequence (P9WMR3 whole entry): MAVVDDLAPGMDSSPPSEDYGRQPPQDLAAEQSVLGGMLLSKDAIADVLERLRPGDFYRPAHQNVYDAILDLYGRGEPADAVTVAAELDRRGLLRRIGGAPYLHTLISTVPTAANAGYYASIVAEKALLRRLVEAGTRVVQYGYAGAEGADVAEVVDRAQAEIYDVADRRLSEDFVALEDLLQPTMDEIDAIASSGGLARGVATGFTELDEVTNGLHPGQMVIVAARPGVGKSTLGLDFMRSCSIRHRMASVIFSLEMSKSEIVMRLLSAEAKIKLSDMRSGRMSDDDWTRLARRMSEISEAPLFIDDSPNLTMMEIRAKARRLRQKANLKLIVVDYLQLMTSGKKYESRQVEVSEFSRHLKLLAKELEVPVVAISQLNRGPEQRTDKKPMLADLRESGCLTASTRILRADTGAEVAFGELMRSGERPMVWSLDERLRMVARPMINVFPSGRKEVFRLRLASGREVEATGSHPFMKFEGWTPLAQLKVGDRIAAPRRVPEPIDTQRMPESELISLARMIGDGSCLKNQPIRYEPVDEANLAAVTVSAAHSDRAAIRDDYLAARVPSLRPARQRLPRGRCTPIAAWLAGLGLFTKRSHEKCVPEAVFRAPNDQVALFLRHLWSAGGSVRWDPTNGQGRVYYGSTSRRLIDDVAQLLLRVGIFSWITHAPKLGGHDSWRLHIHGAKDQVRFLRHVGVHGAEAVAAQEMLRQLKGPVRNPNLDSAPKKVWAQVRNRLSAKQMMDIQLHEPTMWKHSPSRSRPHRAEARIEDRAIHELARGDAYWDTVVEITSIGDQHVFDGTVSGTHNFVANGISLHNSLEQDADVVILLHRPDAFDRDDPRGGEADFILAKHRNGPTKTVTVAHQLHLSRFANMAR
Kind of experiment: DnaB intein splicing inhibitors, dose response, biochemical, cell-free fluorescence (AID 449749). It counts as functional.

The target of a further experiment is T5, Caspase-6 (Homo sapiens, UniProt P55212).
T5 sequence (P55212 whole entry): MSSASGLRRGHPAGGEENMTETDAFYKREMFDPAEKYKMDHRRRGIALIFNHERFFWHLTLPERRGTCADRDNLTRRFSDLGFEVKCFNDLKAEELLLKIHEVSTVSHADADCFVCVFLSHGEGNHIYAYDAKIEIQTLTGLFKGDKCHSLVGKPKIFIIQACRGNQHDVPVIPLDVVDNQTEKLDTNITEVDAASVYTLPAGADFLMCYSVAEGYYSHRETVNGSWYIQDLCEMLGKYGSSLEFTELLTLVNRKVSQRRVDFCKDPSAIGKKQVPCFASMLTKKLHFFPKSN
Briefly: human caspase-6 inhibitors, dose response, biochemical, VEID-R110 fluorescence, cherry-pick (AID 720632).

For experiment [4], the target named is T6, Tyrosine-protein phosphatase non-receptor type 5 (Homo sapiens, UniProt P54829).
T6 sequence (P54829 whole entry): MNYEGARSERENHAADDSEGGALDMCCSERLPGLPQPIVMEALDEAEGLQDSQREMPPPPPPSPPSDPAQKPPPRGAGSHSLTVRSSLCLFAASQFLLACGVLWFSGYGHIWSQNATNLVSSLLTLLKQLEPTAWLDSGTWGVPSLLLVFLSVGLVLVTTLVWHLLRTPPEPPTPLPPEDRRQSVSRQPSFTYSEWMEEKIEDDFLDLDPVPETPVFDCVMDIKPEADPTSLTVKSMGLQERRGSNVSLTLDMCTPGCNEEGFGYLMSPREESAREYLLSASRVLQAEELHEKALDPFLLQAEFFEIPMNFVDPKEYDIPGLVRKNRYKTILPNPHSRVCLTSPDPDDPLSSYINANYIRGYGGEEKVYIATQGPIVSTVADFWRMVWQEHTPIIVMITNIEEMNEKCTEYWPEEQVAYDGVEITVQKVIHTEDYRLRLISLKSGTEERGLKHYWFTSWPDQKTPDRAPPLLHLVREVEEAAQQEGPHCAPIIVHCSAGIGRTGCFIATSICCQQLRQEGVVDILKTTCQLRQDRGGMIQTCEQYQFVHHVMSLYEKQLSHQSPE
Briefly: STEP phosphatase inhibitors, confirmation, biochemical, fluorescence intensity, uHTS hits (AID 602372). The note with it: read-out: IC50_Mean. It counts as functional.

Experiment [5] concerns the target T7, Tyrosine-protein phosphatase non-receptor type 11 (Homo sapiens, UniProt Q06124).
T7 sequence (Q06124 whole entry): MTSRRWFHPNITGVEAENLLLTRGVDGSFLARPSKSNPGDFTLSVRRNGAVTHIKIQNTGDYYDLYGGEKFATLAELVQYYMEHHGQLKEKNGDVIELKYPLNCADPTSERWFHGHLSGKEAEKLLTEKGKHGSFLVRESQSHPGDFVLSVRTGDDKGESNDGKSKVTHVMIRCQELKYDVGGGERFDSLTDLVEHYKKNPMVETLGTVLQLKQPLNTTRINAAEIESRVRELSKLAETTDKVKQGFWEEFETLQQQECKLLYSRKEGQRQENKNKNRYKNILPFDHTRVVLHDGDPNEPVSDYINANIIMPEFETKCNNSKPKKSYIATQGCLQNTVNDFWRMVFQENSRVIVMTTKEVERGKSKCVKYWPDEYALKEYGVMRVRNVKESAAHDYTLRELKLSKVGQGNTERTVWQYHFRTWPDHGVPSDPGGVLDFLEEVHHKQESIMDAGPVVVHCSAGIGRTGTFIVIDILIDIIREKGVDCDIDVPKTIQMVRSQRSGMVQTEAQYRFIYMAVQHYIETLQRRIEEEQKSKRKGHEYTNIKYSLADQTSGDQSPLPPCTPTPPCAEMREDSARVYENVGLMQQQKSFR
Briefly: SHP2 phosphatase inhibition, dose response, selectivity assay for STEP inhibitor project, biochemical (AID 602367). It counts as functional. The note with it: read-out: IC50_Mean.

The target of experiment [6] is Dual specificity protein phosphatase 3 (Homo sapiens, UniProt P51452). Briefly: VHR phosphatase inhibition, dose response, selectivity assay for STEP inhibitor project, biochemical (AID 602374). It counts as functional. The note with it: read-out: IC50_Mean.
Experiment [7] deals with T8, Carboxy-terminal domain RNA polymerase II polypeptide A small phosphatase 1 (Homo sapiens, UniProt Q9GZU7).
T8 sequence (Q9GZU7 whole entry): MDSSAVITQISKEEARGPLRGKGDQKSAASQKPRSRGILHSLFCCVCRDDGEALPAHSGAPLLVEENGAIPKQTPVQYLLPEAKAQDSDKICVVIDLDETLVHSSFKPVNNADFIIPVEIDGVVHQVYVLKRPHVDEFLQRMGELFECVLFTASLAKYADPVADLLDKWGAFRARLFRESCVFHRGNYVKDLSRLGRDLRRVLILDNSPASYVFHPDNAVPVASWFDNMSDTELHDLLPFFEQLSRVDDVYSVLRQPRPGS
Kind of experiment: inhibitors of CTDSP1, concentration-response testing, biochemical assay, absorbance-based, actives from ultra-high-throughput screening (AID 540297). It counts as functional.

Chain of Dual specificity protein phosphatase 3 (P51452 whole entry, the tested form may be a part): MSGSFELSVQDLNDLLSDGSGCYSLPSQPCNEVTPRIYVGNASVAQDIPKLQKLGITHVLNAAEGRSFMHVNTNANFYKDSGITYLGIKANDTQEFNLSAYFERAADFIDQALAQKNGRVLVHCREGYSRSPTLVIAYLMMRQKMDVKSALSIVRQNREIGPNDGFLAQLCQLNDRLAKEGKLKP

As to `COc1ccc(NC2=C(NCCO)C(=O)c3ccccc3C2=O)cc1`, the IC50 was 29.4 µM (active) in [1] and 88.7 µM (inactive) in experiment [2]. Further, the EC50 at Protein RecA was 21.9 µM (active). The values for the AC50 (in experiment [3]; at Caspase-6) were 31.4 µM (active) and 6.05 µM (active), respectively.

For the compound `Cc1c(CC(=O)NCCCCCC(=O)O)c(=O)oc2c(C)c3oc4c(c3cc12)CCCC4`, the IC50 in [4] is 36.4 µM (inactive); in experiment [5] it was 5.36 µM (active); in [6], 3.9 µM (active); in experiment [7] it was 4.72 µM (active).
